Earlier results on four molecules are cited in patent US20210195917A1, “COMPOSITIONS AND RELATED METHODS FOR AGRICULTURE” (priority 2017, published 2021).

One series relates to bees. The conditions noted are these: in vivo.
In the next series the test system is target bacterial strains. The conditions noted are these: against its target bacterial strains.
In series [1] the test system is gram-negative and gram-positive bacteria as well as fungi.

Take botrycidin AJ1316: in the series with fungi, the antifungal activities entry is on record as “antifungal activities”.
Take `COP(=S)(OC)Oc1ccc([N+](=O)[O-])c(C)c1` [fenitrothion]: the toxicity to bees result in the series on bees is on record as “toxic to bees”.
As to nisin, in the series on target bacterial strains, the “concentration showing antimicrobial activity” value was “single-digit nanomolar”.

B1: NCR335: cationic NCR peptide of Medicago truncatula, SEQ ID NO: 65 (peptide, listed as Medicago truncatula)
chain: MQIGKNMVETPKLDYVIIFFFLYFFFRQMIILRLNTTFRPLNFKMLRFWGQNRNIMKHRGQKVHFSLILSDCKTNKDCPKLRRANVRCRKSYCVPI
As for B1, the antimicrobial activities result in series [1] is reported as “effective”.
